Literature values in PMC9516332 (Frontiers in Oncology, 2022).

How the values were obtained:
Conditions in all cases: cited from earlier work
[1] = target: T1, panel of 255 wild-type kinases (Homo sapiens, UniProt O14965)
T1 sequence (O14965 1-403): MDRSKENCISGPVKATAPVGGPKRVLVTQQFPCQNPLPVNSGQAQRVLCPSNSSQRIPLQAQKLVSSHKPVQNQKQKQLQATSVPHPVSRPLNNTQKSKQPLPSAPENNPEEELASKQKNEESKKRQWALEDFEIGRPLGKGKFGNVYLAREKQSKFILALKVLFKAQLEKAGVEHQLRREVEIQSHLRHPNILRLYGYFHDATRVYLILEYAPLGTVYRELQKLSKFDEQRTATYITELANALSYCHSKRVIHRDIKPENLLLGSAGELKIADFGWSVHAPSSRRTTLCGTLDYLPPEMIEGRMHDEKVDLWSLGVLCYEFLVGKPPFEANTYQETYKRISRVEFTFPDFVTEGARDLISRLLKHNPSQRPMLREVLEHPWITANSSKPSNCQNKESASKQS

[2] = target: panel of 255 wild-type kinases (Homo sapiens, UniProt P10721)
[3] = target: panel of 255 wild-type kinases (Homo sapiens, UniProt P17252)
[4] = target: panel of 255 wild-type kinases (Homo sapiens, UniProt P19525)
[5] = target: panel of 255 wild-type kinases (Homo sapiens, UniProt P49674)
[6] = target: T2, panel of 255 wild-type kinases (Homo sapiens, UniProt Q13976)
T2 sequence (Q13976 1-671): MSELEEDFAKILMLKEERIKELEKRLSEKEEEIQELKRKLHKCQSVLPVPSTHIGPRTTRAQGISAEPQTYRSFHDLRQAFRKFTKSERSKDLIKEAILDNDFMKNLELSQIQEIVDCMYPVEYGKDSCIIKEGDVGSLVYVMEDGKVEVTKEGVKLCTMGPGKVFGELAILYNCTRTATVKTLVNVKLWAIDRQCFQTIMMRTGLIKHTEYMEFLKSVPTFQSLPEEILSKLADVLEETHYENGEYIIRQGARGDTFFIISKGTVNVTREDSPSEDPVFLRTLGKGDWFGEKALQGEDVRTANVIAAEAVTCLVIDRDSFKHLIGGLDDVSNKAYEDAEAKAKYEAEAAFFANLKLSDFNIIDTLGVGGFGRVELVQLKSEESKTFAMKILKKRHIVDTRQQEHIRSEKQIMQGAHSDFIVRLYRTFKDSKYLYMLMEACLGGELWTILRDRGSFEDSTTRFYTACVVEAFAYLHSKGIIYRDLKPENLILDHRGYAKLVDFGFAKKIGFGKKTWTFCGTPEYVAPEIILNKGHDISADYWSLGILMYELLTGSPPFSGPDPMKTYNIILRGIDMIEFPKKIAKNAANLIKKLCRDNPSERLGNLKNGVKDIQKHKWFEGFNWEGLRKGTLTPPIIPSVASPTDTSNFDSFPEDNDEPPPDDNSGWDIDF

[7] = target: panel of 255 wild-type kinases (Homo sapiens, UniProt Q15349)
[8] = target: panel of 255 wild-type kinases (Homo sapiens, UniProt Q16288)
[9] = target: panel of 255 wild-type kinases (Homo sapiens, UniProt Q7KZI7)

In the case of `COc1cc(N2CCC(N3CCN(C)CC3)CC2)ccc1Nc1ncc(Cl)c(Nc2ccccc2P(C)(C)=O)n1` [brigatinib], the “%-inhibition AurA” value [1] is given as 79%, the “%-inhibition AurA/TPX2” value [1] is given as 74% and the “%-inhibition at 1 µmol/L, KIT” value [2] is given as 51%. For the same molecule, the “%-inhibition at 1 µmol/L, PKCα” value [3] was 15%, the “%-inhibition at 1 µmol/L, PKR” value [4] was 14% and the “%-inhibition at 1 µmol/L, CK1ε” value [5] was 0.661%. The “%-inhibition at 1 µmol/L, PGK” value [6] was 60%, the “%-inhibition at 1 µmol/L, RSK3” value [7] was 100% and the “%-inhibition at 1 µmol/L, TRKC” value [8] was 53%. The “%-inhibition, MARK2” value [9] was 96%.
